# Literature values as cited in patent publication US20250115648A1 (priority 2013, published 2025).
# “And” between values parts separate entries of the source, which are not always exact repeats. Identical values can stand only once.
# Details: cited from earlier work; for Peak Abs.: peak absorbance wavelength of exemplary fluorescent reporter molecule; for Peak Em.: peak emission wavelength of exemplary fluorescent reporter molecule
Molecule,Peak Abs.,Peak Em.
SYTO 9,482 nanometers,500 nanometers
CN1/C(=C/c2cc[n+](CCC[N+](C)(C)CCC[N+](C)(C)CCC[n+]3ccc(/C=C4\Sc5ccccc5N4C)c4ccccc43)c3ccccc23)Sc2ccccc21.[I-].[I-].[I-].[I-] [TOTO-1],513 nanometers,531 nanometers
Fast Blue,360 nanometers,440 nanometers
"O=C1OC2(c3ccc(O)cc3Oc3cc(O)ccc32)c2ccc(N=C=S)cc21 [FITC (Fluorescein), fluorescein isothiocyanine]",492 nanometers,520 nanometers
CCN(CC)c1ccc(/C=C/C=C/c2cc[n+](CC(O)C[N+](C)(C)CCO)cc2)cc1.[Br-].[Br-] (stereo not shown) [RH 795],530 nanometers,712 nanometers
CN1/C(=C/c2cc[n+](CCC[N+](C)(C)CCC[N+](C)(C)CCC[n+]3ccc(/C=C4/Oc5ccccc5N4C)cc3)cc2)Oc2ccccc21.[I-].[I-].[I-].[I-] [POPO-1],434 nanometers,456 nanometers
C[N+]1=C(/C=C/C=C/C=C2\N(Cc3ccc(CCl)cc3)c3ccccc3C2(C)C)C(C)(C)c2ccccc21.[Cl-] [MitoTracker Deep Red FM],641 nanometers,661 nanometers
Cascade Blue,400 nanometers and 377 nanometers,420 nanometers
"Cc1c2oc3c(C)c(N)cc(C(=O)N[C@@H]4C(=O)N[C@H](C(C)C)C(=O)N5CCC[C@H]5C(=O)N(C)CC(=O)N(C)[C@@H](C(C)C)C(=O)O[C@@H]4C)c3nc-2c(C(=O)N[C@@H]2C(=O)N[C@H](C(C)C)C(=O)N3CCC[C@H]3C(=O)N(C)CC(=O)N(C)[C@@H](C(C)C)C(=O)O[C@@H]2C)c(N)c1=O [Compound 7-AAD, 7-AAD]",549 nanometers,644 nanometers
CCCN(CCCN(C)C)c1cc(/C=C2/Sc3ccccc3N2C)c2ccccc2[n+]1-c1ccccc1 [SYBR Green I],497 nanometers,521 nanometers
CCN1c2cc3c(cc2C(C)=CC1(C)C)C(=CC=CC1=[N+](CCCCCC(=O)O)c2ccc(S(=O)(=O)[O-])cc2C1(C)C)C=C(c1ccccc1)O3 [DY-675],675 nanometers,699 nanometers
CN1/C(=C/C=C/c2cc[n+](CCC[N+](C)(C)CCC[N+](C)(C)CCC[n+]3ccc(/C=C/C=C4/Oc5ccccc5N4C)cc3)cc2)Oc2ccccc21.[I-].[I-].[I-].[I-] [POPO-3],532 nanometers,573 nanometers
CN(C)c1ccc(-c2cnc(-c3ccc(S(=O)(=O)NCCNC(=O)c4c(F)c(F)c(F)c(F)c4F)cc3)o2)cc1 [ER-Tracker Blue-White DPX],371 nanometers,554 nanometers
CFP: Exemplary fluorescent reporter molecules,434 nanometers,–
CC(=O)Oc1ccc2c(c1)Oc1cc(OC(C)=O)ccc1C21OC(=O)c2cc(CCl)ccc21 [CellTracker Green],490 nanometers,540 nanometers
O=C([O-])CN(CC(=O)[O-])c1ccccc1OCCOc1cc(NC(=O)c2ccc3c(c2)C(=O)OC32c3cc(Cl)c([O-])cc3Oc3cc([O-])c(Cl)cc32)ccc1N(CC(=O)[O-])CC(=O)[O-].[K+].[K+].[K+].[K+].[K+].[K+] [Calcium Green-1],506 nanometers,540 nanometers
Cc1c(CC(=O)NCCCCCC(=O)O)c(=O)oc2cc(N)ccc12 [AMCA-X],353 nanometers,442 nanometers
CCCCCCCCCCCCCCCCCCN1/C(=C\C=C\c2oc3ccccc3[n+]2CCCCCCCCCCCCCCCCCC)Oc2ccccc21.[O-][Cl+3]([O-])([O-])[O-] [DiO (Vybrant DiO)],489 nanometers,506 nanometers
O=C([O-])c1ccc(C2=c3cc4c5c(c3Oc3c2cc2c6c3CCCN6CCC2)CCC[N+]=5CCC4)c(C(=O)O)c1 [Compound 5-ROX],577 nanometers,603 nanometers
CCN1c2cc3c(cc2C(C)=CC1(C)C)N=c1cc2c(cc1O3)=[N+](CCCC(=O)O)C(C)(C)C=C2CS(=O)(=O)O [ATTO 700],699 nanometers,719 nanometers
CCCCCCCCCCCC[N+](C)(CCCS(=O)(=O)[O-])Cc1ccc2oc(-c3ccc(N(CC)CC)cc3)c(O)c(=O)c2c1 (stereo not shown) [Compound F2N12S],405 nanometers,–
"Cc1c(CC(=O)O)c(=O)oc2cc(N)ccc12 [AMCA, aminomethylcoumarin]",345 nanometers,425 nanometers
COc1cc2cc(-c3ccc(C(=O)O)cc3C(=O)O)oc2cc1N1CCOCCOCCN(c2cc3oc(-c4ccc(C(=O)O)cc4C(=O)O)cc3cc2OC)CCOCCOCC1 [PBFI],360 nanometers,420 nanometers
CCCCCCCCCCCCCCCCCCN1/C(=C/C=C/C=C/C2=[N+](CCCCCCCCCCCCCCCCCC)c3ccccc3C2(C)C)C(C)(C)c2ccccc21.[O-][Cl+3]([O-])([O-])[O-] [DiD (Vybrant DiD)],645 nanometers,670 nanometers
carboxytetramethyl-rhodamine [TAMRA],565 nanometers,580 nanometers
CC1CC(C)(C)Nc2c1cc1c(c2S(=O)(=O)[O-])Oc2c(S(=O)(=O)[O-])c3c(cc2=C1c1c(Cl)c(SCC(=O)NCCCCCC(=O)ON2C(=O)CCC2=O)c(Cl)c(Cl)c1C(=O)O)C(C)CC(C)(C)N=3.[H+].[Na+] (stereo not shown) [Alexa Fluor 546],561 nanometers,572 nanometers

Molecule,Peak Abs.,Peak Em.
CC1(C)C(=CC=C2CCCC(C=CC3=[N+](CCCCCC(=O)[O-])c4ccc(S(=O)(=O)[O-])cc4C3(C)C)=C2Oc2ccc(S(=O)(=O)[O-])cc2)N(CCCCS(=O)(=O)[O-])c2ccc(S(=O)(=O)[O-])cc21.[Na+].[Na+].[Na+].[Na+] [IRDye 800CW],774 nanometers,789 nanometers
CN(C)c1ccc2c(-c3ccc(CCl)cc3)c3ccc(=[N+](C)C)cc-3oc2c1.[Cl-],551 nanometers,576 nanometers
CC1=CC(C)(C)N(C)c2cc3[o+]c4cc5c(cc4c(-c4cc(NC(=O)c6ccc(CCl)cc6)ccc4C(=O)[O-])c3cc21)C(C)=CC(C)(C)N5C.CC1=CC(C)(C)N(C)c2cc3[o+]c4cc5c(cc4c(-c4ccc(NC(=O)c6ccc(CCl)cc6)cc4C(=O)[O-])c3cc21)C(C)=CC(C)(C)N5C [CellTracker Red CMTPX],584 nanometers,613 nanometers
O=C(O)CSc1c(F)c(F)c(C(=O)O)c(-c2c3cc(F)c(=O)cc-3oc3cc(O)c(F)cc23)c1F [Oregon Green 514],512 nanometers,532 nanometers
CCN(CC)c1ccc2c(-c3ccc(S(=O)(=O)NCCCCCC(=O)O)cc3S(=O)(=O)[O-])c3ccc(=[N+](CC)CC)cc-3oc2c1 [rhodamine Red-X],572 nanometers,591 nanometers
CN(C)CCNC(=O)CCc1ccc2n1[B-](F)(F)[N+]1=C(c3ccc[nH]3)C=CC1=C2 [LysoTracker Red],573 nanometers,592 nanometers
CCCCCCCCCCCCCCCCCCN1/C(=C/C=C/C2=[N+](CCCCCCCCCCCCCCCCCC)c3ccccc3C2(C)C)C(C)(C)c2ccccc21.[O-][Cl+3]([O-])([O-])[O-] [DiI (CellTrackerDiI)],551 nanometers,568 nanometers
Cy5.5,672 nanometers and 678 nanometers,690 nanometers and 696 nanometers
O=C(COc1ccc(/C=C/c2ccc3n2[B-](F)(F)[N+]2=C(c4cccs4)C=CC2=C3)cc1)NCCCCCC(=O)ON1C(=O)CCC1=O [Bodipy 630/650-X],–,641 nanometers
CN(C)CCNc1ccc(O)c2c1C(=O)c1c(O)ccc(NCCN(C)C)c1C2=O [DRAQ5],650 nanometers,680 nanometers
O=c1ccc2nc3ccc(O)c([As]4SCCS4)c3oc-2c1[As]1SCCS1 [ReAsH (TC-ReAsH)],593 nanometers,608 nanometers
TOTO-3,642 nanometers,661 nanometers
Nitrobenzoxadiazole,465 nanometers,510 nanometers
Cc1cc(=O)oc2c(F)c(O)c(F)cc12 [DiFMU (pH 9.0)],357 nanometers,450 nanometers
O=C(O)CCCCCNc1ccc([N+](=O)[O-])c2nonc12 [NBD-X],467 nanometers,538 nanometers
SYTO 16,490 nanometers,520 nanometers
CC1(C)C=C(CS(=O)(=O)O)c2cc3c(C(F)(F)F)cc(=O)oc3cc2N1CCCCCC(=O)ON1C(=O)CCC1=O.CCN(CC)CC [Alexa Fluor 430],–,540 nanometers
CCN1C(=CC=CC2=[N+](CCCCCC(=O)O)c3ccc(S(=O)(=O)O)cc3C2(C)C)C(C)(C)c2cc(S(=O)(=O)[O-])ccc21 [Cy3],552 nanometers,570 nanometers
Texas Red,592 nanometers,615 nanometers
Rhod-2,551 nanometers,576 nanometers
O=C(COc1ccc(C2=[N+]3C(=Cc4ccc(-c5cccs5)n4[B-]3(F)F)C=C2)cc1)NCCCCCC(=O)ON1C(=O)CCC1=O [Bodipy TR-X],588 nanometers,621 nanometers
Allophycocyanin [APC (Allophycocyanin)],651 nanometers,660 nanometers
Cl.Cl.N=C(N)c1ccc2oc(/C=C/c3cc4cc(C(=N)N)ccc4o3)cc2c1 [True Blue],365 nanometers,425 nanometers
Methoxycoumarin,360 nanometers,410 nanometers
"Phycoerythrin [Phycoerythrin (PE, R-phycoerythrin)]",567 nanometers,576 nanometers
carboxy-X-rhodamine [ROX (6-ROX)],568 nanometers,595 nanometers
